Experimental data taken from US20230059136A1, “THE COMPOUNDS AND COMPOSITIONS FOR TREATING CONDITIONS ASSOCIATED WITH NLRP ACTIVITY” (Novartis AG, priority 2018, published 2023).
pIC50: −log10 of the molar value.

Key:
[1] = tested on: IL-1β production in PMA-differentiated THP-1 cells; experiment: hTHP-1 assay containing 10% fetal bovine serum (IL-1β production, gramicidin-stimulated THP-1 cells); format: cell-based, human; conditions: read-out: hTHP-1 IC50 in 10% FBS, average IC50
Description: Activity key: <0.008 μM=“++++++”; ≥0.008 and <0.04 μM=“+++++”; ≥0.04 and <0.2 μM=“++++”; ≥0.2 and <1 μM=“+++”; ≥1 and <5 μM=“++”; ≥5 and <30 μM=“+”. ND=not determined.

[2] = tested on: IL-1β production in PMA-differentiated THP-1 cells; experiment: IL-1β production in PMA-differentiated THP-1 cells stimulated with gramicidin (hTHP-1 assay containing 2% fetal bovine serum); format: cell-based, human
Method in brief: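 IL-1β release was read by HTRF on supernatants of 50,000 PMA-primed (20 ng/ml, 16-18 h) THP-1 cells/well in 2% FBS medium. Cells saw compound for 1 h (11-point titration from 100 μM, 0.37% DMSO) before a 2 h gramicidin (5 μM) challenge.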

[3] = read-out: hTHP-1 IC50 in 2% FBS, average IC50, hTHP-1 assay containing 2% fetal bovine serum
[4] = Homo sapiens, THP-1, Table B2, 2% fetal bovine serum, class symbols, read-out: hTHP-1 IC50 (Average IC50 of compounds in hTHP-1 assay)
[5] = Homo sapiens, THP-1, Table B2, 2% fetal bovine serum, cells printed as numeric bound, read-out: hTHP-1 IC50 (Average IC50 of compounds in hTHP-1 assay)
[6] = Homo sapiens, THP-1, Table B1, 2% fetal bovine serum, class symbols, read-out: hTHP-1 IC50 (Average IC50 of compounds in hTHP-1 assay)

Row | pIC50 [1] | pIC50 [2, 4] | also measured | Compound
1 | 6.70 to 7.40 | – | pIC50 [2, 3]: 6.00 to 6.70 | CC(C)c1cc2c(c(C(C)C)c1CC(=O)N=S(N)(=O)c1nn(CCO)cc1F)OC(F)(F)O2 (racemic) [Example 405, (R) and (S)—N-(amino(4-fluoro-1-(2-hydroxyethyl)-1H-pyrazol-3-yl)(oxo)-λ^6-sulfaneylidene)-2-(2,2-difluoro-4,6-diisopropylbenzo[d][1,3]dioxol-5-yl)acetamide]
2 | 5.30 to 6.00 | – | pIC50 [2, 3]: 4.52 to 5.30 | CC(C)c1cc2c(c(C(C)C)c1CC(=O)N=S(N)(=O)c1nn(CCO)cc1F)OC(F)(F)O2 (racemic) [Example 406, (R) and (S)—N-(amino(4-fluoro-1-(2-hydroxyethyl)-1H-pyrazol-3-yl)(oxo)-λ^6-sulfaneylidene)-2-(2,2-difluoro-4,6-diisopropylbenzo[d][1,3]dioxol-5-yl)acetamide]
3 | 4.52 to 5.30 | – | pIC50 [2, 3]: 4.52 to 5.30 | CC(C)c1c(CC(=O)N=S(N)(=O)c2sc(C(C)(C)O)cc2F)c2c(c3c1OC(F)(F)O3)CCC2 (racemic) [Example 407, (R) and (S)—N-(amino(3-fluoro-5-(2-hydroxypropan-2-yl)thiophen-2-yl)(oxo)-λ^6-sulfaneylidene)-2-(2,2-difluoro-4-isopropyl-7,8-dihydro-6H-indeno[4,5-d][1,3]dioxol-5-yl)acetamide]
4 | 6.00 to 6.70 | – | pIC50 [2, 3]: 6.00 to 6.70 | CC(C)c1c(CC(=O)N=S(N)(=O)c2sc(C(C)(C)O)cc2F)c2c(c3c1OC(F)(F)O3)CCC2 (racemic) [Example 408, (R) and (S)—N-(amino(3-fluoro-5-(2-hydroxypropan-2-yl)thiophen-2-yl)(oxo)-λ^6-sulfaneylidene)-2-(2,2-difluoro-4-isopropyl-7,8-dihydro-6H-indeno[4,5-d][1,3]dioxol-5-yl)acetamide]
5 | 4.52 to 5.30 | – | – | CNCc1ccc(S(N)(=O)=NC(=O)Cc2c(-c3ccccc3)cc(F)cc2C(C)C)cc1 (single isomer, unassigned) [Example 413, (S) or (R)-N-(amino(4-((methylamino)methyl)phenyl) (oxo)-λ^6-sulfaneylidene)-2-(5-fluoro-3-isopropyl-[1,1′-biphenyl]-2-yl)acetamide]
6 | 6.00 to 6.70 | – | – | CNCc1ccc(S(N)(=O)=NC(=O)Cc2c(-c3ccccc3)cc(F)cc2C(C)C)cc1 (single isomer, unassigned) [Example 414, (R) or (S)-N-(amino(4-((methylamino)methyl)phenyl) (oxo)-λ^6-sulfaneylidene)-2-(5-fluoro-3-isopropyl-[1,1′-biphenyl]-2-yl)acetamide]
7 | 6.70 to 7.40 | – | – | CC(C)c1cc2c(c(C(C)C)c1CC(=O)N=S(N)(=O)c1nn(C[C@@H](C)O)cc1F)OC(F)(F)O2 (single isomer, unassigned) [Example 415, (R) or (S)-N-(amino(4-fluoro-1-((R)-2-hydroxypropyl)-1H-pyrazol-3-yl)(oxo)-λ^6-sulfaneylidene)-2-(2,2-difluoro-4,6-diisopropylbenzo[d][1,3]dioxol-5-yl)acetamide]
8 | 4.52 to 5.30 | – | – | CC(C)c1cc2c(c(C(C)C)c1CC(=O)N=S(N)(=O)c1nn(C[C@@H](C)O)cc1F)OC(F)(F)O2 (single isomer, unassigned) [Example 416, (S) or (R)-N-(amino(4-fluoro-1-((R)-2-hydroxypropyl)-1H-pyrazol-3-yl)(oxo)-λ^6-sulfaneylidene)-2-(2,2-difluoro-4,6-diisopropylbenzo[d][1,3]dioxol-5-yl)acetamide]
9 | – | 4.52 to 5.30 | – | CC(C)c1cc(C#N)cc(C(C)C)c1CC(=O)N=[S@](=O)(NC#N)c1nc(CO)c(C(C)(C)O)s1 [Example 375, (S)-N-(cyanamido(4-(hydroxymethyl)-5-(2-hydroxypropan-2-yl)thiazol-2-yl)(oxo)-λ^6-sulfaneylidene)-2-(4-cyano-2,6-diisopropylphenyl)acetamide]
10 | – | 6.00 to 6.70 | – | CC(C)c1cc(C#N)cc(C(C)C)c1CC(=O)N=[S@@](=O)(NC#N)c1nc(CO)c(C(C)(C)O)s1 [Example 376, (R)-N-(cyanamido(4-(hydroxymethyl)-5-(2-hydroxypropan-2-yl)thiazol-2-yl)(oxo)-λ^6-sulfaneylidene)-2-(4-cyano-2,6-diisopropylphenyl)acetamide]
11 | – | – | pIC50 [2, 5]: < 4.52 | COc1ccc(C(C)(C)O)cc1[S@](=O)(=NC(=O)Cc1c(C(C)C)cc(C#N)cc1C(C)C)NC#N [Example 377, (S)-N-(cyanamido(5-(2-hydroxypropan-2-yl)-2-methoxyphenyl)(oxo)-λ^6-sulfaneylidene)-2-(4-cyano-2,6-diisopropylphenyl)acetamide]
12 | – | 4.52 to 5.30 | – | COc1ccc(C(C)(C)O)cc1[S@@](=O)(=NC(=O)Cc1c(C(C)C)cc(C#N)cc1C(C)C)NC#N [Example 378, (R)-N-(cyanamido(5-(2-hydroxypropan-2-yl)-2-methoxyphenyl)(oxo)-λ^6-sylfaneylidene)-2-(4-cyano-2,6-diisopropylphenyl)acetamide]
13 | – | 4.52 to 5.30 | – | CNCc1ccc(S(N)(=O)=NC(=O)Cc2c(-c3ccccc3)ccc3c2CCC3)cc1 (centres unmarked) [Example 379, N-(amino(4-((methylamino)methyl)phenyl)(oxo)-λ^6-sulfaneylidene)-2-(5-phenyl-2,3-dihydro-1H-inden-4-yl)acetamide]
14 | – | – | pIC50 [2, 5]: < 4.52 | CC(C)c1cc2ccccc2c(C(C)C)c1CC(=O)N=[S@@](N)(=O)c1cnc(C(C)(C)O)s1 [Example 389, (R)-N-(amino(2-(2-hydroxypropan-2-yl)thiazol-5-yl) (oxo)-λ^6-sulfaneylidene)-2-(1,3-diisopropylnaphthalen-2-yl)acetamide]
15 | – | – | pIC50 [2, 5]: < 4.52 | CC(C)c1cc(C(F)F)cc(C(C)C)c1CC(=O)N=S(=O)(NC(=O)Cc1c(C(C)C)cc(C(F)F)cc1C(C)C)c1ccc(CN(C)C)nc1 (centres unmarked) [Example 390, 2-(4-(Difluoromethyl)-2,6-diisopropylphenyl)-N-((2-(4-(difluoromethyl)-2,6-diisopropylphenyl)acetamido)(6-((dimethylamino)methyl)pyridin-3-yl)(oxo)-λ^6-sulfaneylidene)acetamide]
16 | – | – | pIC50 [2, 5]: < 4.52 | CC(C)c1cc2c(cnn2C)c(C(C)C)c1CC(=O)N=S(N)(=O)c1ncc(C(C)(C)O)s1 (centres unmarked) [Example 391, N-(Amino(5-(2-hydroxypropan-2-yl)thiazol-2-yl)(oxo)-λ^6-sulfaneylidene)-2-(4,6-diisopropyl-1-methyl-1H-indazol-5-yl)acetamide]
17 | – | – | pIC50 [2, 5]: < 4.52 | CC(C)c1ncnc(C(C)C)c1CC(=O)N=S(N)(=O)c1cnc(C(C)(C)O)s1 (centres unmarked) [Example 392, N-(amino(2-(2-hydroxypropan-2-yl)thiazol-5-yl)(oxo)-λ^6-sulfaneylidene)-2-(4,6-diisopropylpyrimidin-5-yl)acetamide]
18 | – | 5.30 to 6.00 | – | CCn1cc(F)c(S(N)(=O)=NC(=O)Cc2c(C(C)C)cc3c(c2C(C)C)COC3)n1 (centres unmarked) [Example 393, N-(amino(1-ethyl-4-fluoro-1H-pyrazol-3-yl)(oxo)-λ^6-sulfaneylidene)-2-(4,6-diisopropyl-1,3-dihydroisobenzofuran-5-yl)acetamide]
19 | – | 6.00 to 6.70 | – | CCn1cc(F)c(S(N)(=O)=NC(=O)Cc2c(C(C)C)cc3c(c2C(C)C)OC(F)(F)O3)n1 (centres unmarked) [Example 394, N-(amino(1-ethyl-4-fluoro-1H-pyrazol-3-yl)(oxo)-λ^6-sulfaneylidene)-2-(2,2-difluoro-4,6-diisopropylbenzo[d][1,3]dioxol-5-yl)acetamide]
20 | – | 6.00 to 6.70 | – | CC(C)c1c2c(c3c(c1CC(=O)N=S(N)(=O)c1sc(C(C)(C)O)cc1F)CCC3)COC2 (centres unmarked) [Example 395, N-(Amino(3-fluoro-5-(2-hydroxypropan-2-yl)thiophen-2-yl) (oxo)-λ^6-sulfaneylidene)-2-(4-isopropyl-3,6,7,8-tetrahydro-1H-indeno[4,5-c]furan-5-yl)acetamide]
21 | – | – | pIC50 ([2]; Homo sapiens, THP-1, read-out: hTHP-1 IC50 in 2% FBS, average IC50, hTHP-1 assay containing 2% fetal bovine serum): 4.52 to 5.30 | Cc1cc(C(F)(F)F)cc(O)c1CC(=O)N=S(N)(=O)c1ccccc1 (centres unmarked) [Example 404, N-(amino(oxo)(phenyl)-λ^6-sulfaneylidene)-2-(2-hydroxy-6-methyl-4-(trifluoromethyl)phenyl)acetamide]
22 | – | – | pIC50 [2, 6]: 6.00 to 6.70 | CC(C)c1ccc(F)c(C(C)C)c1CC(=O)N=[S@@](N)(=O)c1cc(C(C)(C)O)cs1 [compound 88, (R)-N-(amino(4-(2-hydroxypropan-2-yl)thiophen-2-yl)(oxo)-λ^6-sulfanylidene)-2-(3-fluoro-2,6-diisopropylphenyl)acetamide]
23 | – | – | pIC50 [2, 6]: 6.00 to 6.70 | CC(C)c1nc(-c2cccc(C(F)(F)F)c2)c(F)c(C(C)C)c1CC(=O)N=[S@@](N)(=O)c1cnc(C(C)(C)O)s1 [compound 89, (R)-N-(amino(2-(2-hydroxypropan-2-yl)thiazol-5-yl)(oxo)-λ^6-sulfanylidene)-2-(5-fluoro-2,4-diisopropyl-6-(3-(trifluoromethyl)phenyl)pyridin-3-yl)acetamide]
24 | – | – | pIC50 [2, 5]: < 4.52 | CC(C)c1cc(C#N)c(F)c(C(C)C)c1CC(=O)N=S(=O)(NC(N)=O)c1cnc([C@](C)(O)CO)s1 (some centres unmarked) [compound 355]
25 | – | 5.30 to 6.00 | – | CC(C)c1cc(C#N)c(F)c(C(C)C)c1CC(=O)N=S(N)(=O)c1cnc(C(O)CO)s1 (centres unmarked) [compound 382]
